# Assay results: patent US7780873B2, “Bioactive complexes compositions and methods of use thereof” (Texas A&M University System, priority 2004, dated 2010)
# Read-outs that look alike come from different tables or passages of the source.
# Experiments:
# [1] = rat duodenal infusion, cited from earlier work
# [2] = Lipid oxidation of O/W Menhaden oil-based emulsions; type: physicochemical; conditions: gallic acid alone or with coenzyme Q10; emulsified with egg yolk PC; pH 6.0; GC
# [3] = test system: human promyelocytic leukemia HL-60 cells; conditions: cited from earlier work
# [4] = from emulsions containing corn oil
pro-/antioxidative properties of control samples [2],SMILES,"average recovery in the lymph [1, 4]",average recovery in the lymph ([1]; from olive oil emulsion),apoptotic cell death [3]
–,CC1=C(/C=C/C(C)=C/C=C/C(C)=C/C=C/C=C(C)/C=C/C=C(C)/C=C/C2=C(C)C(=O)[C@@H](O)CC2(C)C)C(C)(C)C[C@H](O)C1=O [astaxanthin],13%,20%,–
prooxidative properties,O=C(O)c1cc(O)c(O)c(O)c1 [gallic acid],–,–,induced apoptotic cell death
–,"CC(C)=CCC/C(C)=C/C=C/C(C)=C/C=C/C(C)=C/C=C/C=C(C)/C=C/C=C(C)/C=C/C=C(\C)CCC=C(C)C [LYC, lycopene]",2.5%,6%,–
